Tested on: BJeLR
Assay: Modulatory profiling: Alamar Blue viability, lethal compound cotreated with death modulator (EC50, AUC); for AUC, modulator BJ.3MA: reference of the scale not given here; for AUC, modulator BJ.ALLN: reference of the scale not given here; for AUC, modulator BJ.Boc D: reference of the scale not given here; for AUC, modulator BJ.CHX: reference of the scale not given here; for AUC, modulator BJ.Co2+: reference of the scale not given here; for AUC, modulator BJ.DPQ: reference of the scale not given here; for AUC, modulator BJ.Gd3+: reference of the scale not given here; for AUC, modulator BJ.LNAME: reference of the scale not given here; for AUC, modulator BJ.NAD+: reference of the scale not given here; for AUC, modulator BJ.NMMA: reference of the scale not given here; for AUC, modulator BJ.Nec-1: reference of the scale not given here; for AUC, modulator BJ.Pepstatin: reference of the scale not given here; for AUC, modulator BJ.TLCK: reference of the scale not given here
Type: cell-based, human
Parameters: AUC, modulator BJ.Gd3+ / AUC, modulator BJ.LNAME / AUC, modulator BJ.Lmin / AUC, modulator BJ.3MA / AUC, modulator BJ.ALLN / AUC, modulator BJ.Boc D / AUC, modulator BJ.CHX / AUC, modulator BJ.Co2+ / AUC, modulator BJ.Nec-1 / AUC, modulator BJ.Pepstatin / AUC, modulator BJ.TLCK / AUC, modulator BJ.atoc / AUC, modulator BJ.trolox / AUC, modulator BJ.zVAD: unit not given beside the values
Conditions: for AUC, modulator BJ.3MA / AUC, modulator BJ.ALLN / AUC, modulator BJ.Boc D / AUC, modulator BJ.CHX / AUC, modulator BJ.Co2+ / AUC, modulator BJ.DPQ / AUC, modulator BJ.Gd3+ / AUC, modulator BJ.LNAME / AUC, modulator BJ.Lmin/NAD+ / AUC, modulator BJ.Lmin / AUC, modulator BJ.NAD+ / AUC, modulator BJ.NMMA / AUC, modulator BJ.Nec-1 / AUC, modulator BJ.Pepstatin / AUC, modulator BJ.TLCK / AUC, modulator BJ.atoc / AUC, modulator BJ.trolox / AUC, modulator BJ.zVAD: BJeLR cells, modulatory profile value (AUC); for AUC, modulator BJ.3MA: lethal compound cotreated with modulator 3MA; for AUC, modulator BJ.ALLN: lethal compound cotreated with modulator ALLN; for AUC, modulator BJ.Boc D: lethal compound cotreated with modulator Boc D; for AUC, modulator BJ.CHX: lethal compound cotreated with modulator CHX; for AUC, modulator BJ.Co2+: lethal compound cotreated with modulator Co2+; for AUC, modulator BJ.DPQ: lethal compound cotreated with modulator DPQ; for AUC, modulator BJ.Gd3+: lethal compound cotreated with modulator Gd3+; for AUC, modulator BJ.LNAME: lethal compound cotreated with modulator LNAME; for AUC, modulator BJ.Lmin/NAD+: lethal compound cotreated with modulator Lmin/NAD+; for AUC, modulator BJ.Lmin: lethal compound cotreated with modulator Lmin; for AUC, modulator BJ.NAD+: lethal compound cotreated with modulator NAD+; for AUC, modulator BJ.NMMA: lethal compound cotreated with modulator NMMA; for AUC, modulator BJ.Nec-1: lethal compound cotreated with modulator Nec-1; for AUC, modulator BJ.Pepstatin: lethal compound cotreated with modulator Pepstatin; for AUC, modulator BJ.TLCK: lethal compound cotreated with modulator TLCK; for AUC, modulator BJ.atoc: lethal compound cotreated with modulator atoc; for AUC, modulator BJ.trolox: lethal compound cotreated with modulator trolox; for AUC, modulator BJ.zVAD: lethal compound cotreated with modulator zVAD; for EC50: Homo sapiens, BJeLR, 48 h
[1] = cotreated with antioxidant Trolox
[2] = cotreated with antioxidant atoc
[3] = cotreated with iron-chelator Lmim

| Compound | AUC, modulator BJ.3MA | AUC, modulator BJ.ALLN | AUC, modulator BJ.Boc D | AUC, modulator BJ.CHX | AUC, modulator BJ.Co2+ | AUC, modulator BJ.DPQ | AUC, modulator BJ.Gd3+ | AUC, modulator BJ.LNAME | AUC, modulator BJ.Lmin/NAD+ | AUC, modulator BJ.Lmin | AUC, modulator BJ.NAD+ | AUC, modulator BJ.NMMA | AUC, modulator BJ.Nec-1 | AUC, modulator BJ.Pepstatin | AUC, modulator BJ.TLCK | AUC, modulator BJ.atoc | AUC, modulator BJ.trolox | AUC, modulator BJ.zVAD | further results |
| --- | --- | --- | --- | --- | --- | --- | --- | --- | --- | --- | --- | --- | --- | --- | --- | --- | --- | --- | --- |
| O=c1c(N2CCCC2)c(Cl)cnn1-c1ccccc1 [CIL20] | 0.055 | −0.09098 | −0.06373 | −0.009677 | 0.04763 | −0.02696 | 0.04266 | −0.001747 | −0.03734 | −0.02603 | 0.03043 | −0.01046 | 0.0115 | −0.002516 | −0.00743 | −0.005113 | 0.02308 | −0.04036 |  |
| O=c1c(Cl)c(Cl)cnn1-c1ccc(Cl)c(C(F)(F)F)c1 [CIL25] | 0.02374 | −0.07209 | −0.009758 | −0.0273 | −0.003244 | 0.001852 | 0.04216 | −0.004428 | 0.09246 | 0.01628 | 0.06106 | 0.01683 | 0.03297 | −0.00415 | −0.05889 | 0.02909 | −0.001029 | 0.03879 |  |
| CC1CC2=C(CC1CNCCCN(C)C)C(C)(C)CCC2 (stereo not shown) [CIL26] | 0.05124 | −0.0584 | −0.05574 | −0.001733 | 0.04871 | 0.01829 | 0.004541 | −0.03322 | 0.09111 | −0.0139 | 0.005678 | 0.006781 | −0.03974 | 0.02268 | −0.06133 | 0.05008 | 0.03147 | −0.003259 |  |
| CC(C)=CCCC1=CCC(CNCCCN(C)C)C(C)C1 (stereo not shown) [CIL28] | 0.0433 | −0.02065 | −0.02549 | −0.01119 | 0.03417 | 0.009235 | −0.07741 | −0.04858 | −0.02578 | −0.053 | 0.06231 | 0.000264 | 0.005737 | 0.06166 | −0.09417 | 0.05295 | 0.06039 | 0.006234 |  |
| O=C(/C=C/c1cccc(NC(=O)c2cccs2)c1)c1ccccc1 [CIL33] | 0.06199 | −0.1124 | −0.03229 | 0.1026 | 0.04311 | 0.02549 | −0.06539 | −0.03157 | −0.0126 | 0.01529 | 0.05051 | 0.0458 | −0.08953 | 0.07672 | −0.1077 | 0.0414 | −0.05339 | −0.02675 |  |
| CCCCNc1c(Cl)cnn(-c2ccccc2)c1=O [CIL36] | 0.06295 | −0.03236 | −0.0473 | −0.03087 | −0.03647 | 0.1393 | 0.01469 | 0.0008728 | −0.09403 | 0.02336 | −0.01826 | 0.03927 | −0.1729 | −0.01891 | −0.04337 | 0.06822 | −0.02322 | 0.00966 |  |
| CN(C)CCCOS(=O)(=O)c1ccc(N2CCC(c3ccc(Cl)cc3)=N2)cc1 [CIL40] | 0.1131 | −0.02592 | −0.05607 | −0.1423 | 0.03348 | 0.01887 | −0.004738 | 0.002197 | −0.06069 | −0.05273 | 0.005587 | 0.05461 | 0.02442 | −0.01642 | −0.05358 | 0.05022 | 0.03943 | 0.007977 |  |
| N/C(=N\OC(=O)C12CC3CC(CC(C3)C1)C2)c1ccccc1 [CIL41] | 0.117 | −0.08211 | −0.06374 | −0.0571 | −0.02378 | 0.02161 | −0.006767 | 0.00307 | 0.1504 | 0.2032 | −0.0198 | 0.04219 | 0.09368 | −0.03128 | −0.02463 | 0.2729 | 0.1871 | 0.03607 | EC50 (DMSO): 3170 nM; EC50 (cotreated with Lmim_NAD): 22600 nM; EC50 [1]: 23200 nM; EC50 [2]: 36600 nM; EC50 [3]: 22400 nM |
| O=P(Oc1ccccc1)(Oc1ccccc1)O[C@@H]1C=CS(=O)(=O)C1 [CIL44] | 0.05756 | −0.0588 | −0.03963 | 0.1553 | 0.02387 | 0.05604 | 0.005556 | 0.008981 | −0.04975 | 0.03065 | −0.04167 | 0.02894 | −0.01119 | 0.002455 | −0.03963 | 0.009119 | −0.03989 | −0.01682 |  |
| CCc1ccc(/C=C2/SC(=O)N(CCC(C)NCCCN3CCOCC3)C2=O)cc1 (stereo not shown) [CIL46] | 0.1884 | −0.01374 | −0.005903 | 0.1598 | −0.1389 | 0.03979 | −0.05606 | −0.02185 | 0.1825 | 0.2583 | −0.02371 | 0.03363 | 0.08455 | −0.01313 | −0.09715 | 0.1051 | 0.04647 | −0.05153 |  |
| COc1ccc(-n2nnnc2S(=O)(=O)CC(=O)N2CCCCC2)cc1 [CIL48] | 0.09789 | −0.1008 | −0.02225 | 0.1619 | 0.05392 | 0.01112 | −0.004307 | −0.01039 | 0.06326 | −0.02664 | −0.04246 | 0.01412 | −0.04434 | −0.01271 | −0.01339 | 0.01164 | −0.03407 | −0.01807 |  |
| CCCCS(=O)(=O)/C=C\C=C/S(=O)(=O)CCCC [CIL49] | 0.04504 | −0.05864 | −0.0257 | 0.1692 | 0.009716 | −0.002084 | −0.006048 | −0.007857 | 0.07067 | 0.03689 | 0.02344 | 0.006898 | 0.001972 | 0.02852 | −0.03549 | −0.008324 | −0.02337 | −0.001762 |  |
| O=S(=O)(c1ccc2c(c1)C(=NO)c1cc(S(=O)(=O)N3CCCCC3)ccc1-2)N1CCCCC1 [CIL56, 2,7-bis(piperidin-1-ylsulfonyl)-9H-fluoren-9-one oxime] | 0.1459 | 0.05831 | −0.01043 | −0.07221 | 0.1263 | 0.03219 | 0.004997 | 0.005978 | 0.2194 | 0.1358 | 0.02645 | 0.0004905 | 0.2368 | 0.03545 | 0.1986 |  |  |  | EC50 (DMSO): 213 nM; EC50 (cotreated with Lmim_NAD): 1300 nM; EC50 [1]: 2030 nM; EC50 [2]: 2490 nM; EC50 [3]: 925 nM |

From patent publication US10947188B2, “Small molecule ferroptosis inducers” (THE TRUSTEES OF COLUMBIA UNIVERSITY IN THE CITY OF NEW YORK, priority 2016, dated 2021)
